{"source": "patent US8183212B2", "about": "“Compound having GPR54 agonistic activity” (Kyoto University, priority 2006, dated 2012)", "target": "GPR54 (Homo sapiens, UniProt Q969F8)", "sequence (Q969F8 whole entry, species assumed)": "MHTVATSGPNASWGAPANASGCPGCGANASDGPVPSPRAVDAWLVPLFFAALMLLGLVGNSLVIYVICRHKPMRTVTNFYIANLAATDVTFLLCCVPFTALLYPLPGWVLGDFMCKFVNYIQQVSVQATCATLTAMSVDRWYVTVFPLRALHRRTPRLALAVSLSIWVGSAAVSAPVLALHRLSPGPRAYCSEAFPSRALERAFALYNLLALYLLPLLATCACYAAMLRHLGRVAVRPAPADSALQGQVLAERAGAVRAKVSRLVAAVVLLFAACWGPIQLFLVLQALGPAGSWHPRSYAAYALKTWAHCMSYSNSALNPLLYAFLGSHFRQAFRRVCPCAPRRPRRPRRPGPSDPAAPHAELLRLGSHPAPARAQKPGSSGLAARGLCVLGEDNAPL", "test": "GPR54 agonist activity by Flipr assay (increase in intracellular Ca2+ measured as fluorescence intensity)", "type": "cell-based", "details": "for % activity: fluorescence intensity with 10^-8 M pentapeptide derivative relative to 10^-6 M metastin (45-54) as 100%; for Q (=EC50 (compound)/EC50 [metastin (45-54)]): specific activity value relative to metastin (45-54)", "experimental": "A compound having GPR54 agonist activity (pentapeptide derivative) was prepared according to a conventional Fmoc solid phase synthesis process using Rink-amide resin (Fields G B, Noble R L., Int J Pept Protein Res. 1990; 35, 161-214.). The GPR54 agonist activity of the obtained pentapeptide derivative was evaluated according to Flipr assay method wherein an increase in the intracellular Ca^2+ ion concentration due to receptor stimulation is measured as the fluorescence intensity. […] Hereafter, the agonist activity was mainly compared based on the Q value.", "note": "pEC50: −log10 of the molar value. Square brackets hold non-standard residues; d marks the D form. Peptide text beside a SMILES is read from it. 2Nal = N[C@@H](Cc1ccc2ccccc2c1)C(=O)O; 4Amb = NCc1ccc(C(=O)O)cc1; 4Abz = Nc1ccc(C(=O)O)cc1"}
{"molecule": "CC(C)C[C@H](NC(=O)CNC(=O)[C@H](Cc1ccccc1)NC(=O)c1ccc(CN(Cc2ccccn2)Cc2ccccn2)cc1)C(=O)N[C@@H](CCCNC(=N)N)C(=O)N[C@@H](Cc1c[nH]c2ccccc12)C(N)=O", "note": "[Compound 1, reference compound]", "values": [{"measurement": "% activity", "value": 89, "unit": "%"}]}
{"molecule": "CC(C)C[C@H](NC(=O)CNC(=O)[C@H](Cc1ccccc1)NC(=O)c1ccc(CNC(=N)N)cc1)C(=O)N[C@@H](CCCNC(=N)N)C(=O)N[C@@H](Cc1c[nH]c2ccccc12)C(N)=O", "note": "[Compound 2, reference compound]", "values": [{"measurement": "% activity", "value": 94, "unit": "%"}]}
{"molecule": "CC(C)C[C@H](NC(=O)CNC(=O)[C@H](Cc1ccccc1)NC(=O)c1ccc(CN)cc1)C(=O)N[C@@H](CCCNC(=N)N)C(=O)N[C@@H](Cc1c[nH]c2ccccc12)C(N)=O", "note": "[Compound 6, 4-(aminomethyl)benzoyl-Phe-Gly-Leu-Arg-Trp-NH2] (H-[4Amb]FGLRW-NH2)", "values": [{"measurement": "% activity", "value": 97, "unit": "%"}, {"measurement": "Q (=EC50 (compound)/EC50 [metastin (45-54)])", "value": 3.4}]}
{"molecule": "CC(C)C[C@H](NC(=O)CNC(=O)[C@H](Cc1ccc2ccccc2c1)NC(=O)c1ccc(CN)cc1)C(=O)N[C@@H](CCCNC(=N)N)C(=O)N[C@@H](Cc1c[nH]c2ccccc12)C(N)=O", "note": "[Compound 8, 4-(aminomethyl)benzoyl-Nal(2)-Gly-Leu-Arg-Trp-NH2] (H-[4Amb][2Nal]GLRW-NH2)", "values": [{"measurement": "agonist activity, times stronger than compound 6", "setting": "compared with compound 6", "value": "about 4 times"}, {"measurement": "% activity", "value": 89, "unit": "%"}]}
{"molecule": "CC(C)C[C@H](NC(=O)CNC(=O)[C@H](Cc1ccccc1)NC(=O)c1ccc(N)cc1)C(=O)N[C@@H](CCCNC(=N)N)C(=O)N[C@@H](Cc1c[nH]c2ccccc12)C(N)=O", "note": "[Compound 20, 4-aminobenzoyl-Phe-Gly-Leu-Arg-Trp-NH2] (H-[4Abz]FGLRW-NH2)", "values": [{"measurement": "% activity", "value": 90, "unit": "%"}]}
{"molecule": "CC(C)C[C@H](NC(=O)CNC(=O)[C@H](Cc1ccccc1)NC(=O)c1c[nH]cn1)C(=O)N[C@@H](CCCNC(=N)N)C(=O)N[C@@H](Cc1c[nH]c2ccccc12)C(N)=O", "note": "[Compound 26, 4-imidazolylcarbonyl-Phe-Gly-Leu-Arg-Trp-NH2]", "values": [{"measurement": "% activity", "value": 88, "unit": "%"}]}
{"molecule": "CC(C)C[C@H](NC(=O)CNC(=O)[C@H](Cc1ccccc1)NC(=O)c1ccc[nH]1)C(=O)N[C@@H](CCCNC(=N)N)C(=O)N[C@@H](Cc1c[nH]c2ccccc12)C(N)=O", "note": "[Compound 27, 2-pyrrolylcarbonyl-Phe-Gly-Leu-Arg-Trp-NH2]", "values": [{"measurement": "% activity", "value": 96, "unit": "%"}]}
{"molecule": "CC(=O)NCc1ccc(C(=O)N[C@@H](Cc2ccccc2)C(=O)NCC(=O)N[C@@H](CC(C)C)C(=O)N[C@@H](CCCNC(=N)N)C(=O)N[C@@H](Cc2c[nH]c3ccccc23)C(N)=O)cc1", "note": "[Compound 28, N-acetyl-4-(aminomethyl)benzoyl-Phe-Gly-Leu-Arg-Trp-NH2] (Ac-[4Amb]FGLRW-NH2)", "values": [{"measurement": "% activity", "value": 100, "unit": "%"}]}
{"molecule": "CC(C)C[C@H](NC(=O)CNC(=O)[C@H](Cc1ccccc1)NC(=O)c1ccc(O)cc1)C(=O)N[C@@H](CCCNC(=N)N)C(=O)N[C@@H](Cc1c[nH]c2ccccc12)C(N)=O", "note": "[Compound 30, 4-hydroxybenzoyl-Phe-Gly-Leu-Arg-Trp-NH2]", "values": [{"measurement": "% activity", "value": 95, "unit": "%"}]}
{"molecule": "CC(C)C[C@H](NC(=O)CNC(=O)[C@H](Cc1ccccc1)NC(=O)c1ccc([N+](=O)[O-])cc1)C(=O)N[C@@H](CCCNC(=N)N)C(=O)N[C@@H](Cc1c[nH]c2ccccc12)C(N)=O", "note": "[Compound 37, 4-nitrobenzoyl-Phe-Gly-Leu-Arg-Trp-NH2]", "values": [{"measurement": "% activity", "value": 94, "unit": "%"}]}
{"molecule": "CC(C)C[C@H](NC(=O)CNC(=O)[C@H](Cc1ccccc1)NC(=O)c1ccc(Cl)cc1)C(=O)N[C@@H](CCCNC(=N)N)C(=O)N[C@@H](Cc1c[nH]c2ccccc12)C(N)=O", "note": "[Compound 38, 4-chlorobenzoyl-Phe-Gly-Leu-Arg-Trp-NH2]", "values": [{"measurement": "% activity", "value": 92, "unit": "%"}]}
{"molecule": "CC(C)C[C@H](NC(=O)CNC(=O)[C@H](Cc1ccccc1)NC(=O)c1ccc(F)cc1)C(=O)N[C@@H](CCCNC(=N)N)C(=O)N[C@@H](Cc1c[nH]c2ccccc12)C(N)=O", "note": "[Compound 39, 4-fluorobenzoyl-Phe-Gly-Leu-Arg-Trp-NH2]", "values": [{"measurement": "% activity", "value": 96, "unit": "%"}]}
{"molecule": "CC(C)C[C@H](NC(=O)CNC(=O)[C@H](Cc1ccccc1)NC(=O)[C@H](CO)NC(=O)[C@H](CC(N)=O)NC(=O)[C@H](Cc1c[nH]c2ccccc12)NC(=O)[C@H](CC(N)=O)NC(=O)[C@@H](N)Cc1ccc(O)cc1)C(=O)N[C@@H](CCCNC(=N)N)C(=O)N[C@@H](Cc1ccccc1)C(N)=O", "note": "[Metastin (45-54), reference compound]", "values": [{"measurement": "pEC50", "value": "8.96 to 9.44"}, {"measurement": "% activity", "value": 100, "unit": "%"}, {"measurement": "Q (=EC50 (compound)/EC50 [metastin (45-54)])", "value": 1.0}]}
